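Values below derive from 48-hour exposures of cells grown in 96-well plates, with endpoints linearly interpolated between the two concentrations bracketing the appropriate inhibition level. The concentration for 50% growth inhibition is given as GI50.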 Activity calls are given as the source filed them. No stated cut-off is given here; in the data, active = GI50 up to about 1.1 µM and inactive = higher.
Key:
Assay in all cases: inhibition of tumour cell growth, NCI panel, 48 h
A498 = tested on: A498
A549 = tested on: A549
ACHN = tested on: ACHN
BT-549 = tested on: BT-549
CCRF-CEM = tested on: CCRF-CEM
DU-145 = tested on: DU-145
EKVX = tested on: EKVX
HL-60 = tested on: HL-60
HOP-92 = tested on: HOP-92
Hs-578T = tested on: Hs-578T
KM12 = tested on: KM12
M14 = tested on: M14
MDA-N = tested on: MDA-N
MOLT-4 = tested on: MOLT-4
NCI-H460 = tested on: NCI-H460
OVCAR-4 = tested on: OVCAR-4
PC-3 = tested on: PC-3
SF-268 = tested on: SF-268
SF-295 = tested on: SF-295
SK-MEL-2 = tested on: SK-MEL-2

SMILES	GI50 (A498)	GI50 (A549)	GI50 (ACHN)	GI50 (BT-549)	GI50 (CCRF-CEM)	GI50 (DU-145)	GI50 (EKVX)	GI50 (HL-60)	GI50 (HOP-92)	GI50 (Hs-578T)	GI50 (KM12)	GI50 (M14)	GI50 (MDA-N)	GI50 (MOLT-4)	GI50 (NCI-H460)	GI50 (OVCAR-4)	GI50 (PC-3)	GI50 (SF-268)	GI50 (SF-295)	GI50 (SK-MEL-2)
COc1cccc2c1C(=O)C(=O)c1c-2oc(=O)c2cc(C)cc(OC)c12	> 75 µM (inactive)	> 75 µM (inactive)	> 75 µM (inactive)	13.5 µM (inactive)	17.5 µM (inactive)	13.6 µM (inactive)	22.5 µM (inactive)	25.7 µM (inactive)	59.2 µM (inactive)	19.6 µM (inactive)	21.1 µM (inactive)	25.3 µM (inactive)	17.5 µM (inactive)	23 µM (inactive)	> 75 µM (inactive)	14.9 µM (inactive)	37.8 µM (inactive)	17.3 µM (inactive)	45.3 µM (inactive)	16 µM (inactive)
O=CCCCCCOCc1ccccc1	> 100 µM (inactive)	43.6 µM (inactive)	36.9 µM (inactive)	> 100 µM (inactive)	28 µM (inactive)	71.9 µM (inactive)	> 100 µM (inactive)	11.6 µM (inactive)	> 100 µM (inactive)	> 100 µM (inactive)	54.3 µM (inactive)	> 100 µM (inactive)	> 100 µM (inactive)	16.9 µM (inactive)	23.3 µM (inactive)	> 87.5 µM (inactive)	> 100 µM (inactive)	> 100 µM (inactive)	30.6 µM (inactive)	> 100 µM (inactive)
CCCCn1c(C)c(C(=O)OCC)s/c1=N/Nc1nc2ccccc2nc1-c1ccccc1	58.5 µM (inactive)	50.4 µM (inactive)	78.3 µM (inactive)	> 100 µM (inactive)	> 100 µM (inactive)	37.7 µM (inactive)	> 100 µM (inactive)	17.9 µM (inactive)	44 µM (inactive)	26.2 µM (inactive)		> 100 µM (inactive)	> 100 µM (inactive)	> 100 µM (inactive)	> 100 µM (inactive)	65 µM (inactive)	30.9 µM (inactive)		43.3 µM (inactive)	> 100 µM (inactive)
COc1ccc([N+](=O)[O-])c2c(NCCCN(C)C)c(C)c(C)nc12	> 100 µM (inactive)	99.3 µM (inactive)	> 100 µM (inactive)	56.6 µM (inactive)	> 100 µM (inactive)	> 100 µM (inactive)		42.9 µM (inactive)	23.9 µM (inactive)	> 100 µM (inactive)	> 100 µM (inactive)	> 100 µM (inactive)	> 100 µM (inactive)	> 100 µM (inactive)	34.4 µM (inactive)	27.8 µM (inactive)	83 µM (inactive)	> 100 µM (inactive)	90.8 µM (inactive)	> 100 µM (inactive)
Cc1ccc(Nc2nc(=O)[nH]c(=O)[nH]2)cc1N	> 100 µM (inactive)	> 100 µM (inactive)	> 100 µM (inactive)	> 100 µM (inactive)	> 100 µM (inactive)	> 100 µM (inactive)	> 100 µM (inactive)	> 100 µM (inactive)	> 100 µM (inactive)	> 100 µM (inactive)	> 100 µM (inactive)	> 100 µM (inactive)	> 100 µM (inactive)		> 100 µM (inactive)	> 100 µM (inactive)	> 100 µM (inactive)	> 100 µM (inactive)	> 100 µM (inactive)	> 100 µM (inactive)
NC(=O)NC(=O)c1cccc(NC(=O)CI)c1	0.231 µM (active)	0.805 µM (active)	< 0.017 µM (active)	0.0473 µM (active)	< 0.01 µM (active)	0.0344 µM (active)	0.863 µM (active)	< 0.01 µM (active)	< 0.01 µM (active)	0.0398 µM (active)	0.0391 µM (active)		< 0.01 µM (active)	< 0.01 µM (active)	0.0485 µM (active)	0.148 µM (active)	0.0316 µM (active)	0.0254 µM (active)	0.274 µM (active)	0.0361 µM (active)

Reference: ChEMBL document CHEMBL1201862, “PubChem BioAssay data set” (2004)
